Measurements taken from ChEMBL document CHEMBL1150275, “Pharmacological and pharmacokinetic characterization of 2-piperazine-alpha-isopropyl benzylamine derivatives as melanocortin-4 receptor antagonists” (Bioorg Med Chem, 2008).

Tests used:
[1] = Ratio of drug level in brain to plasma in mouse at 10 mg/kg, po after 1 hr; format: ADME, organism-based; parameters: dose 10 mg/kg, route oral; details: brain and plasma
Brain [2] = assay: Drug level in LLC tumor bearing C57BL/6J mouse brain at 5 mg/kg, po; format: ADME, organism-based; parameters: dose 5 mg/kg, route oral; details: in vivo
[3] = Drug level in LLC tumor bearing C57BL/6J mouse plasma at 20 mg/kg, po twice daily after 24 hrs on day 4 of administration measured 14 hrs after last dose; format: ADME, organism-based; parameters: dose 20 mg/kg, route oral
[4] = Ratio of AUC in brain to plasma in mouse at 5 mg/kg, iv and 10 mg/kg, po; format: ADME, organism-based
[5] = Drug level in LLC tumor bearing C57BL/6J mouse brain at 20 mg/kg, po twice daily after 24 hrs on day 4 of administration measured 14 hrs after last dose; format: ADME, organism-based; parameters: dose 20 mg/kg, route oral
[6] = Drug level in LLC tumor bearing C57BL/6J mouse brain at 20 mg/kg, po twice daily after 2 hrs on day 4 of administration; format: ADME, organism-based; parameters: dose 20 mg/kg, route oral
[7] = Drug level in mouse brain at 10 mg/kg, po after 1 hr; format: ADME, organism-based; parameters: dose 10 mg/kg, route oral
[8] = Drug level in LLC tumor bearing C57BL/6J mouse brain at 20 mg/kg, po twice daily after 2 hrs on day 1 of administration; format: ADME, organism-based; parameters: dose 20 mg/kg, route oral
Brain [9] = assay: AUC in rat brain at 10 mg/kg, po; format: ADME, organism-based; parameters: dose 10 mg/kg, route oral; details: in vivo
[10] = Ratio of drug level in brain to plasma in mouse at 5 mg/kg, iv after 1 hr; format: ADME, organism-based; parameters: dose 5 mg/kg, route intravenous
[11] = Dissociation constant, pKa of the compound; format: physicochemical
[12] = Drug level in LLC tumor bearing C57BL/6J mouse plasma at 20 mg/kg, po twice daily after 2 hrs on day 1 of administration; format: ADME, organism-based; parameters: dose 20 mg/kg, route oral
[13] = Ratio of drug level in brain to plasma in mouse at 5 mg/kg, iv after 4 hrs; format: ADME, organism-based; parameters: dose 5 mg/kg, route intravenous
Caco-2 = assay: Apparent permeability across human Caco-2 cells; format: ADME, cell-based
[14] = Drug level in LLC tumor bearing C57BL/6J mouse plasma at 20 mg/kg, po twice daily after 24 hrs; format: ADME, organism-based; parameters: dose 20 mg/kg, route oral
[15] = Drug level in mouse brain at 10 mg/kg, po after 4 hrs; format: ADME, organism-based; parameters: dose 10 mg/kg, route oral; details: read-out: Drug uptake
[16] = Ratio of Cmax in brain to plasma in mouse at 5 mg/kg, iv and 10 mg/kg, po; format: ADME, organism-based
[17] = Volume of distribution in mouse at 5 mg/kg, iv and 10 mg/kg, po; format: ADME, organism-based; details: in vivo
[18] = Drug level in LLC tumor bearing C57BL/6J mouse brain at 20 mg/kg, po twice daily after 12 hrs on day 1 of administration; format: ADME, organism-based; parameters: dose 20 mg/kg, route oral
[19] = Tmax in mouse brain at 5 mg/kg, iv and 10 mg/kg, po; format: ADME, organism-based
[20] = Drug level in LLC tumor bearing C57BL/6J mouse brain at 20 mg/kg, po twice daily after 24 hrs; format: ADME, organism-based; parameters: dose 20 mg/kg, route oral
[21] = Drug level in rat brain at 10 mg/kg, po after 6 hrs; format: ADME, organism-based; parameters: dose 10 mg/kg, route oral; details: read-out: Drug uptake
[22] = Cmax in mouse brain at 5 mg/kg, iv and 10 mg/kg, po; format: ADME, organism-based
[23] = Drug level in LLC tumor bearing C57BL/6J mouse brain at 20 mg/kg, po twice daily after 12 hrs on day of administration; format: ADME, organism-based; parameters: dose 20 mg/kg, route oral
[24] = Ratio of drug level in brain to plasma in mouse at 10 mg/kg, po after 4 hrs; format: ADME, organism-based; parameters: dose 10 mg/kg, route oral
[25] = Drug level in LLC tumor bearing C57BL/6J mouse plasma at 20 mg/kg, po twice daily after 12 hrs on day 1 of administration; format: ADME, organism-based; parameters: dose 20 mg/kg, route oral
[26] = Drug level in LLC tumor bearing C57BL/6J mouse plasma at 20 mg/kg, po twice daily after 2 hrs on day 4 of administration; format: ADME, organism-based; parameters: dose 20 mg/kg, route oral
[27] = Drug level in LLC tumor bearing C57BL/6J mouse plasma at 20 mg/kg, po twice daily after 12 hrs on day 4 of administration; format: ADME, organism-based; parameters: dose 20 mg/kg, route oral
physchem = details: buffer, pH 7.4
Brain [28] = assay: AUC in mouse brain at 5 mg/kg, iv and 10 mg/kg, po; format: ADME, organism-based; details: in vivo
[29] = Oral bioavailability in dog at 10 mg/kg; format: ADME, organism-based, Canis lupus familiaris; details: in vivo
[30] = AUC in monkey at 10 mg/kg, po; format: ADME, organism-based, Macaca mulatta; parameters: dose 10 mg/kg, route oral; details: rhesus monkey, plasma
[31] = Drug level in rat brain at 10 mg/kg, po after 4 hrs; format: ADME, organism-based; parameters: dose 10 mg/kg, route oral; details: read-out: Drug uptake
[32] = Tmax in rat brain at 10 mg/kg, po; format: ADME, organism-based; parameters: dose 10 mg/kg, route oral
[33] = Tmax in dog at 5 mg/kg, iv and 10 mg/kg, po; format: ADME, organism-based, Canis lupus familiaris; details: in vivo
[34] = Tmax in rat at 5 mg/kg, iv and 10 mg/kg, po; format: ADME, organism-based; details: in vivo
[35] = Volume of distribution in rat at 5 mg/kg, iv and 10 mg/kg, po; format: ADME, organism-based; details: in vivo
[36] = AUC in mouse at 10 mg/kg, po; format: ADME, organism-based; parameters: dose 10 mg/kg, route oral; details: plasma
[37] = Ratio of Cmax in brain to plasma in rat at 10 mg/kg, po after 4 hrs; format: ADME, organism-based; parameters: dose 10 mg/kg, route oral; details: brain and plasma
[38] = Ratio of Cmax in brain to plasma in rat at 10 mg/kg, po after 1 hr; format: ADME, organism-based; parameters: dose 10 mg/kg, route oral; details: brain and plasma
[39] = Oral bioavailability in monkey at 10 mg/kg; format: ADME, organism-based, Macaca mulatta; details: rhesus monkey, in vivo
[40] = Oral bioavailability in rat at 10 mg/kg; format: ADME, organism-based; details: in vivo
[41] = Cmax in dog at 5 mg/kg, iv and 10 mg/kg, po; format: ADME, organism-based, Canis lupus familiaris; details: in vivo
[42] = AUC in rat at 10 mg/kg, po; format: ADME, organism-based; parameters: dose 10 mg/kg, route oral; details: plasma
[43] = Drug level in mouse brain at 5 mg/kg, iv after 4 hrs; format: ADME, organism-based; parameters: dose 5 mg/kg, route intravenous; details: read-out: Drug uptake
[44] = Ratio of Cmax in brain to plasma in rat at 10 mg/kg, po; format: ADME, organism-based; parameters: dose 10 mg/kg, route oral; details: brain and plasma
[45] = AUC in dog at 10 mg/kg, po; format: ADME, organism-based, Canis lupus familiaris; parameters: dose 10 mg/kg, route oral; details: plasma
[46] = Cmax in rat brain at 10 mg/kg, po; format: ADME, organism-based; parameters: dose 10 mg/kg, route oral
[47] = Cmax in mouse at 5 mg/kg, iv and 10 mg/kg, po; format: ADME, organism-based; details: in vivo
[48] = Cmax in monkey at 5 mg/kg, iv and 10 mg/kg, po; format: ADME, organism-based, Macaca mulatta; details: rhesus monkey, in vivo
[49] = Drug level in mouse brain at 5 mg/kg, iv after 1 hr; format: ADME, organism-based; parameters: dose 5 mg/kg, route intravenous; details: read-out: Drug uptake
[50] = Volume of distribution in dog at 5 mg/kg, iv and 10 mg/kg, po; format: ADME, organism-based, Canis lupus familiaris; details: in vivo
[51] = Volume of distribution in monkey at 5 mg/kg, iv and 10 mg/kg, po; format: ADME, organism-based, Macaca mulatta; details: rhesus monkey, in vivo
[52] = Tmax in mouse at 5 mg/kg, iv and 10 mg/kg, po; format: ADME, organism-based; details: in vivo
[53] = Drug level in rat brain at 10 mg/kg, po after 1 hr; format: ADME, organism-based; parameters: dose 10 mg/kg, route oral; details: read-out: Drug uptake
[54] = Ratio of AUC in brain to plasma in rat at 10 mg/kg, po; format: ADME, organism-based; parameters: dose 10 mg/kg, route oral; details: brain and plasma
[55] = Oral bioavailability in mouse at 10 mg/kg; format: ADME, organism-based; details: in vivo
[56] = Cmax in rat at 5 mg/kg, iv and 10 mg/kg, po; format: ADME, organism-based; details: in vivo
[57] = Tmax in monkey at 5 mg/kg, iv and 10 mg/kg, po; format: ADME, organism-based, Macaca mulatta; details: rhesus monkey, in vivo

## Cc1ccc(N2CCN(C(=O)[C@H](C)Cc3ccc(Cl)cc3)CC2)c([C@@H](NC(=O)CCN(C)C)C(C)C)c1
[1]
  Kp at 1 h: 0.1
Brain [2]
  Drug uptake: 2 ng/mL
[3]
  concentration at 14 h: 22 ng/mL
[4]
  Kp: 0.15
[5]
  concentration at 14 h: 4.5 ng/g
[6]
  concentration at 2 h: 36 ng/g
[7]
  concentration at 1 h: 19 ng/g
[8]
  concentration at 2 h: 27 ng/g
Brain [9]
  AUC: 254 ng·h/g
[10]
  Kp at 1 h: 0.1
[11]
  pKa: 8.9
[12]
  concentration at 2 h: 360 ng/mL
[13]
  Kp at 4 h: 0.1
Caco-2
  Papp: 41 ×10⁻⁶ cm/s
[14]
  concentration at 24 h: 140 ng/mL
[15]
  concentration at 4 h: 18 ng/g
[16]
  Kp: 0.1
[17]
  Vd: 4.1 L/kg
[18]
  concentration at 12 h: 74 ng/g
[19]
  Tmax: 0.3 h
[20]
  concentration at 24 h: 11 ng/g
[21]
  concentration at 6 h: 41 ng/g
[22]
  Cmax: 91 ng/g
[23]
  concentration at 12 h: 25 ng/g
[24]
  Kp at 4 h: 0.1
[25]
  concentration at 12 h: 430 ng/mL
[26]
  concentration at 2 h: 460 ng/mL
[27]
  concentration at 12 h: 405 ng/mL
physchem
  logD: 3.4
Brain [28]
  AUC: 367 ng·h/g

## CC(C)[C@H](NC(=O)CCN(C)C)c1cccc(F)c1N1CCN(C(=O)[C@H](C)Cc2ccc(Cl)cc2)CC1
[29]
  bioavailability: 37%
[30]
  AUC: 2650 ng·h/mL
[31]
  concentration at 4 h: 38 ng/g
[32]
  Tmax: 6 h
Brain [9]
  AUC: 618 ng·h/g
[10]
  Kp at 1 h: 0.6
[33]
  Tmax: 4 h
[34]
  Tmax: 6 h
[35]
  Vd: 7.7 L/kg
[13]
  Kp at 4 h: 0.8
[36]
  AUC: 2690 ng·h/mL
[37]
  Kp at 4 h: 0.2
Caco-2
  Papp: 10 ×10⁻⁶ cm/s
[38]
  Kp at 1 h: 0.05
[39]
  bioavailability: 21%
[17]
  Vd: 5.2 L/kg
[40]
  bioavailability: 31%
[41]
  Cmax: 250 ng/mL
[42]
  AUC: 1290 ng·h/mL
[43]
  concentration at 4 h: 175 ng/g
[44]
  Kp: 0.27
[45]
  AUC: 3850 ng·h/mL
[46]
  Cmax: 52 ng/g
[47]
  Cmax: 308 ng/mL
[48]
  Cmax: 200 ng/mL
[49]
  concentration at 1 h: 322 ng/g
[50]
  Vd: 8.7 L/kg
[51]
  Vd: 5.6 L/kg
[52]
  Tmax: 0.5 h
physchem
  logD: 2.4
[53]
  concentration at 1 h: 6.3 ng/g
[54]
  Kp: 0.48
[55]
  bioavailability: 42%
[56]
  Cmax: 195 ng/mL
[57]
  Tmax: 6.7 h
